Measured values as given in patent publication US20140148443A1, “Novel Imidazolines as dual inhibitors of MDM2 and MDMX” (priority 2012, published 2014).

Assays:
GST-tagged MDMX = target: T1, GST-tagged MDMX (Homo sapiens, UniProt O15151); experiment: HTRF binding assay of GST-tagged MDMX to p53 peptide
T1 sequence (O15151 1-490): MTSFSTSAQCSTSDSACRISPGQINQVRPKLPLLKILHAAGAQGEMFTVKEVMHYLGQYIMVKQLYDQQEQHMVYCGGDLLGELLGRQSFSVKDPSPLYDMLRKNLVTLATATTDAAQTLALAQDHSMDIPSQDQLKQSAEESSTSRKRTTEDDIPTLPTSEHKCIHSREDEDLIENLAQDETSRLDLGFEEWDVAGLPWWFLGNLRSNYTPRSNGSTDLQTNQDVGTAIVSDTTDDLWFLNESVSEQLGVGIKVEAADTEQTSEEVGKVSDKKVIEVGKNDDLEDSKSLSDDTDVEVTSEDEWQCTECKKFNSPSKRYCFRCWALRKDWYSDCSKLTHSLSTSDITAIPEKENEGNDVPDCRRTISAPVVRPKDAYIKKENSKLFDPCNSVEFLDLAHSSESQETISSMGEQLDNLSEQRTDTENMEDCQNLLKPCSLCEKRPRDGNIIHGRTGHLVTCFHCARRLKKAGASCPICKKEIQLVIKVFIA

[1] = target: recombinant GST-tagged MDM2 (Homo sapiens, UniProt Q00987); experiment: HTRF assay of interaction between p53 peptide and GST-tagged MDM2; conditions: inhibition of GST-MDM2 (160 ng/ml) binding to biotinylated p53-peptide
Chain of recombinant GST-tagged MDM2 (Q00987 whole entry): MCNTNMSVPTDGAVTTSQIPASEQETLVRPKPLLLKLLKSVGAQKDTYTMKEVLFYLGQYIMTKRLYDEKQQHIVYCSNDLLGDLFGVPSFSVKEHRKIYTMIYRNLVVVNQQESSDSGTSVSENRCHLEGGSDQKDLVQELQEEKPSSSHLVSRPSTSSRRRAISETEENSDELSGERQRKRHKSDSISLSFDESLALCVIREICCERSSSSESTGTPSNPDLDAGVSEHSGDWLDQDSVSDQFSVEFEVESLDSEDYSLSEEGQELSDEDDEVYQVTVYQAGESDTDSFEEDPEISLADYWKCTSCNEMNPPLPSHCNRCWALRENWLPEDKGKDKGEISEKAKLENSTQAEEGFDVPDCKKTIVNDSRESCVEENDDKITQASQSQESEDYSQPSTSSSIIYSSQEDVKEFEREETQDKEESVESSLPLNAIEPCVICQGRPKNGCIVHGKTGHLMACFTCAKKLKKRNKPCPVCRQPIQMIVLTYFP
Procedure: The ability of a test compound to inhibit the interaction between p53 and MDM2 protein was measured by an HTRF (homogeneous time-resolved fluorescence) assay in which recombinant GST-tagged MDM2 binds to a peptide that resembles the MDM2-interacting region of p53 Aca-[…]-OH hereinafter p53-peptide). Binding of GST-MDM2 protein and p53-peptide (biotinylated on its N-terminal end) is registered by the FRET (fluorescence resonance energy transfer) between Europium (Eu)-labeled anti-GST antibody and streptavidin-conjugated Allophycocyanin (APC).
The test was performed in black flat-bottom 384-well plates (Costar) in a total volume of 40 uL containing: 90 nM biotinylated peptide, 160 ng/ml GST-MDM2, 20 nM streptavidin-APC (PerkinElmerWallac), 2 nM Eu-labeled anti-GST-antibody (PerkinElmerWallac), 0.02% bovine serum albumin (BSA), 1 mM dithiothreitol (DTT) and 20 mM […] (TBS) buffer as follows: add 10 uL of GST-MDM2 (640 ng/ml working solution) in reaction buffer to each well. Add 10 uL diluted compounds (1:5 dilution in reaction buffer) to each well, mix by shaking. Add 20 uL biotinylated p53 peptide (180 nM working solution) in reaction buffer to each well and mix on shaker. Incubate at 37° C. for 1 h. Add […] streptavidin-APC and Eu-anti-GST antibody mixture (6 nM Eu-anti-GST and 60 nM streptavidin-APC working solution) in TBS buffer with 0.02% BSA, shake at room temperature for 30 minutes and read using a TRF-capable plate reader at 665 and 615 nm (Victor 5, Perkin ElmerWallac). If not specified, the reagents were purchased from Sigma Chemical Co.

Row | Structure (SMILES) | IC50 (GST-tagged MDMX) | IC50 [1]
1 | CCOc1cc(Cl)c(S(C)(=O)=O)cc1C1=N[C@@](C)(c2ccc(Cl)cc2)[C@@](C)(c2ccc(Cl)cc2)N1C(=O)N1CCN(CC(=O)N2CCOCC2)CC1 [Example 17, 2-{4-[(4S,5R)-2-(4-Chloro-2-ethoxy-5-methanesulfonyl-phenyl)-4,5-bis-(4-chloro-phenyl)-4,5-dimethyl-4,5-dihydro-imidazole-1-carbonyl]-piperazin-1-yl}-1-morpholin-4-yl-ethanone] | 1340 nM | 5.2 nM
2 | CCOc1cc(Cl)c(S(C)(=O)=O)cc1C1=N[C@@](C)(c2ccc(Cl)cc2)[C@@](C)(c2ccc(Cl)cc2)N1C(=O)N1CCN(CCS(C)(=O)=O)CC1 [Example 18, [(4S,5R)-2-(4-Chloro-2-ethoxy-5-methanesulfonyl-phenyl)-4,5-bis-(4-chloro-phenyl)-4,5-dimethyl-4,5-dihydro-imidazol-1-yl]-[4-(2-methanesulfonyl-ethyl)-piperazin-1-yl]-methanone] | 1430 nM | 6 nM
3 | CCOc1cc(Cl)c(S(C)(=O)=O)cc1C1=N[C@@](C)(c2ccc(Cl)cc2)[C@@](C)(c2ccc(Cl)cc2)N1C(=O)N1CCC2(CCNCC2)CC1 [Example 19, [(4S,5R)-2-(4-Chloro-2-ethoxy-5-methanesulfonyl-phenyl)-4,5-bis-(4-chloro-phenyl)-4,5-dimethyl-4,5-dihydro-imidazol-1-yl]-(3,9-diaza-spiro[5.5]undec-3-yl)-methanone] | 3770 nM | 12.5 nM
4 | CCOc1cc(Cl)c(S(C)(=O)=O)cc1C1=N[C@@](C)(c2ccc(Cl)cc2)[C@@](C)(c2ccc(Cl)cc2)N1C(=O)N1CCN(C2CCS(=O)(=O)C2)CC1 (stereo partly drawn) [Example 20, [(4S,5R)-2-(4-Chloro-2-ethoxy-5-methanesulfonyl-phenyl)-4,5-bis-(4-chloro-phenyl)-4,5-dimethyl-4,5-dihydro-imidazol-1-yl]-[4-(1,1-dioxo-tetrahydro-thiophen-3-yl)-piperazin-1-yl]-methanone] | 3650 nM | 5.4 nM
5 | CCOc1cc(Cl)c(S(C)(=O)=O)cc1C1=N[C@@](C)(c2ccc(Cl)cc2)[C@@](C)(c2ccc(Cl)cc2)N1C(=O)N1CCC2(CCN(CC(N)=O)CC2)CC1 [Example 21, 2-{9-[(4S,5R)-2-(4-Chloro-2-ethoxy-5-methanesulfonyl-phenyl)-4,5-bis-(4-chloro-phenyl)-4,5-dimethyl-4,5-dihydro-imidazole-1-carbonyl]-3,9-diaza-spiro[5.5]undec-3-yl}-acetamide] | 1490 nM | 5.8 nM
6 | CCOc1cc(Cl)c(S(C)(=O)=O)cc1C1=N[C@@](C)(c2ccc(Cl)cc2)[C@@](C)(c2ccc(Cl)cc2)N1C(=O)N1CCC(CCCS(C)(=O)=O)CC1 [Example 22, [(4S,5R)-2-(4-Chloro-2-ethoxy-5-methanesulfonyl-phenyl)-4,5-bis-(4-chloro-phenyl)-4,5-dimethyl-4,5-dihydro-imidazol-1-yl]-[4-(3-methanesulfonyl-propyl)-piperidin-1-yl]-methanone] | 1350 nM | 4.6 nM
7 | CCOc1cc(Cl)c(S(C)(=O)=O)cc1C1=N[C@@](C)(c2ccc(Cl)cc2)[C@@](C)(c2ccc(Cl)cc2)N1C(=O)N1CCN(CC(=O)N(CCOC(C)C)CCOC(C)C)CC1 [Example 23, 2-{4-[(4S,5R)-2-(4-Chloro-2-ethoxy-5-methanesulfonyl-phenyl)-4,5-bis-(4-chloro-phenyl)-4,5-dimethyl-4,5-dihydro-imidazole-1-carbonyl]-piperazin-1-yl}-N,N-bis-(2-isopropoxy-ethyl)-acetamide] | 1850 nM | 5.5 nM
8 | CCOc1cc(Cl)c(S(C)(=O)=O)cc1C1=N[C@@](C)(c2ccc(Cl)cc2)[C@@](C)(c2ccc(Cl)cc2)N1C(=O)N1CCC(CC(=O)N(CCOC)CCOC)CC1 [Example 24, 2-{1-[(4S,5R)-2-(4-Chloro-2-ethoxy-5-methanesulfonyl-phenyl)-4,5-bis-(4-chloro-phenyl)-4,5-dimethyl-4,5-dihydro-imidazole-1-carbonyl]-piperidin-4-yl}-N,N-bis-(2-methoxy-ethyl)-acetamide] | 1520 nM | 7.2 nM
